Measured values taken from patent US20090042810A1, “AMPK Deficient Animals, Screening Methods, And Related Therapeutics And Diagnostics” (GenExel-Sein, Inc., priority 2007, published 2009).
Entries after “also recorded” stand apart in the source; their conditions may differ.

How the values were obtained:
[1] = tested on: LS174T cells; assay: AMPK and MRLC phosphorylation in LS174T cells (immunoblot / immunostaining); format: cell-based, human
[2] = tested on: Drosophila S2 cells; assay: Energy deprivation-induced MRLC phosphorylation in Drosophila S2 cells (immunoblot); format: cell-based; details: 50 mM 2DG for 4 hr
[3] = tested on: LS174T cells; assay: Polarization of LS174T cells (actin, polarity markers, brush border); format: cell-based, human
[4] = tested on: AMPK holoenzyme purified from rat liver; assay: In vitro kinase assay, AMPK holoenzyme purified from rat liver with GST-MRLC / GST-ACC2 substrates; format: biochemical; details: 0.3 mM AMP; for Phosphorylation of MRLC by AMPK in presence of inhibitor (32P autoradiography): 10 μM drug added to reaction mixture, GST-MRLC substrate
Text: (§1) Fly strains. AMPK^D1 and AMPKD2 lines were generated by imprecise excision (Lee, et al., FEBS Lett. 550, 5-10 (2003)) of AMPK^G505 line (GenExel Inc.). UAS constructs were microinjected into w^1118 embryos. LKB1- and MRLC-mutant lines were described previously (Jordan et al., J. Cell Biol. 139, 1805-1819 (1997); (Karess et al., Cell 65, 1177-1189 (1991); (Lee et al., Cell Death Differ. 13, 110-1122 (2006)). Other lines were obtained from the Bloomington Stock Center. Microscopic analyses of Drosophila tissues. Dark field, phase contrast, and SEM analyses were performed to visualize embryonic cuticle structure. Immunostaining with various antibodies were performed to visualize embryonic epithelial structure. Brain squash preparation was used to analyze genomic integrity. Kinase assays. Phosphotransferase activities were determined in a reaction mixture consisting of HEPES-Brij Buffer, ATP (γ-^32P), and protein substrates. Protein levels were visualized by immunoblot or Coomassie staining. Phosphorylated proteins were visualized by phospho-specific immunoblot or ^32P-autoradiography. Incorporated phosphates were quantified using P81 filter binding assay. Drosophila strains. The AMPK^G505 fly line with an EP-element inserted at the AMPK locus was obtained from the Genisys Collection of EP lines (GenExel Inc., Korea), and subjected to standard imprecise excision (Lee, et al., FEBS Lett. 550, 5-10 (2003); (Lee et al., Cell Death Differ. 13, 110-1122 (2006)). HA-tagged AMPK (AMPK^WT) and its mutant forms (AMPK^KR, AMPK^TA and AMPK^TD) were subcloned into the pUAST vector and microinjected into w^1118 embryos. LKB1^X5, UAS-LKB1, spaghetti-squash^1 (sqh^1), and MRLC^EE (also referred to as sqh^EE) lines were described previously (Jordan et al., J. Cell Biol. 139, 1805-1819 (1997); (Karess et al., Cell 65, 1177-1189 (1991); (Lee et al., Cell Death Differ. 13, 110-1122 (2006)). […] Deletion sites of AMPK^D1 and AMPK^D2 were determined by genomic-PCR analyses. […]

[5] = tested on: Drosophila AMPK (dAMPK); assay: In vitro kinase assay, immunoprecipitated Drosophila AMPK with MRLC substrate; format: biochemical; details: 10 μM drug added to reaction solution
Text: as §1, with “strains.” for “strains. The AMPK^G505 fly line with an EP-element inserted at the AMPK locus was obtained from the Genisys Collection of EP lines (GenExel Inc., Korea), and subjected to standard imprecise excision (Lee, et al., FEBS Lett. 550, 5-10 (2003); (Lee et al., Cell Death Differ. 13, 110-1122 (2006)). HA-tagged AMPK (AMPK^WT) and its mutant forms (AMPK^KR, AMPK^TA and AMPK^TD) were subcloned into the pUAST vector and microinjected into w^1118 embryos. LKB1^X5, UAS-LKB1, spaghetti-squash^1 (sqh^1), and MRLC^EE (also referred to as sqh^EE) lines were described previously (Jordan et al., J. Cell Biol. 139, 1805-1819 (1997); (Karess et al., Cell 65, 1177-1189 (1991); (Lee et al., Cell Death Differ. 13, 110-1122 (2006)).”

[6] = tested on: human MLCK; assay: In vitro kinase assay, active MLCK with MRLC substrate; format: biochemical; details: 10 μM drug added to reaction solution
Text: as §1, with “strains.” for “strains. The AMPK^G505 fly line with an EP-element inserted at the AMPK locus was obtained from the Genisys Collection of EP lines (GenExel Inc., Korea), and subjected to standard imprecise excision (Lee, et al., FEBS Lett. 550, 5-10 (2003); (Lee et al., Cell Death Differ. 13, 110-1122 (2006)). HA-tagged AMPK (AMPK^WT) and its mutant forms (AMPK^KR, AMPK^TA and AMPK^TD) were subcloned into the pUAST vector and microinjected into w^1118 embryos. LKB1^X5, UAS-LKB1, spaghetti-squash^1 (sqh^1), and MRLC^EE (also referred to as sqh^EE) lines were described previously (Jordan et al., J. Cell Biol. 139, 1805-1819 (1997); (Karess et al., Cell 65, 1177-1189 (1991); (Lee et al., Cell Death Differ. 13, 110-1122 (2006)).”

[7] = tested on: human AMPK (hAMPK); assay: In vitro kinase assay, immunoprecipitated human AMPK with MRLC substrate; format: biochemical; details: 10 μM drug added to reaction solution
Text: as §1, with “strains.” for “strains. The AMPK^G505 fly line with an EP-element inserted at the AMPK locus was obtained from the Genisys Collection of EP lines (GenExel Inc., Korea), and subjected to standard imprecise excision (Lee, et al., FEBS Lett. 550, 5-10 (2003); (Lee et al., Cell Death Differ. 13, 110-1122 (2006)). HA-tagged AMPK (AMPK^WT) and its mutant forms (AMPK^KR, AMPK^TA and AMPK^TD) were subcloned into the pUAST vector and microinjected into w^1118 embryos. LKB1^X5, UAS-LKB1, spaghetti-squash^1 (sqh^1), and MRLC^EE (also referred to as sqh^EE) lines were described previously (Jordan et al., J. Cell Biol. 139, 1805-1819 (1997); (Karess et al., Cell 65, 1177-1189 (1991); (Lee et al., Cell Death Differ. 13, 110-1122 (2006)).”

O=CC[C@@H](O)[C@H](O)[C@H](O)CO [2DG, 2-deoxyglucose]
Activation of AMPK (pAMPK) ([1]; 50 mM 2DG, indicated time): activation of AMPK
MRLC phosphorylation (pMRLC) in LS174T cells ([1]; 2DG treatment): 2DG-induced phosphorylation of MRLC
MRLC phosphorylation (pMRLC) in S2 cells [2]: enhanced MRLC phosphorylation
Distribution of villin, CD66/CEA and CD71/transferrin markers ([3]; 50 mM 2DG, 2 hr): became dramatically polarized
Cell shape / actin cytoskeleton polarization and brush border-like structure ([3]; 50 mM 2DG, 2 hr, serum-free media): dramatic change in cell shape to have polarized actin cytoskeleton with a brush border-like structure

Nc1ncnc2c1ncn2[C@@H]1O[C@H](COP(=O)(O)O)[C@@H](O)[C@H]1O [AMP]
Phosphorylation of full-length MRLC by AMPK on addition of AMP ([4]; human GST-MRLC substrate): further enhanced

c1cc(-c2cnn3cc(-c4ccc(OCCN5CCCCC5)cc4)cnc23)ccn1 [Compound C]
2DG-induced MRLC phosphorylation, effect of inhibitor ([1]; 10 μM Compound C 30 min before 50 mM 2DG): suppressed
Drosophila AMPK phosphorylation of MRLC in presence of drug [5]: specifically inhibited
Phosphorylation of MRLC by AMPK in presence of inhibitor (32P autoradiography) [4]: inhibited the phosphorylation
MLCK phosphorylation of MRLC in presence of drug [6]: not
2DG-induced actin polarization, effect of inhibitor or siRNA ([3]; 2DG 2 hr, Compound C 10 μM 30 min before 2DG, or siRNA transfection, listed as CC): inhibited; also recorded: suppressed
Human AMPK phosphorylation of MRLC in presence of drug [7]: specifically inhibited

O=S(=O)(c1cccc2c(I)cccc12)N1CCCNCC1 [ML-7]
Drosophila AMPK phosphorylation of MRLC in presence of drug [5]: not
Phosphorylation of MRLC by AMPK in presence of inhibitor (32P autoradiography) [4]: did not
MLCK phosphorylation of MRLC in presence of drug [6]: specifically inhibited
